Kd data for 1 compound are collected here from PMC7589583, “Hydroxylation of Antitubercular Drug Candidate, SQ109, by Mycobacterial Cytochrome P450” (International Journal of Molecular Sciences, 2020).

What all share (format): binding
In test [1] the target is CYP142 (Rv3518c, CYP142A1) (Mycobacterium tuberculosis, UniProt P9WPL5). Description: biochemical.
Test [2] has as its target T1, CYP125 (Rv3545c, CYP125A1) (Mycobacterium tuberculosis, UniProt P9WPP1).
T1 sequence (P9WPP1 1-433): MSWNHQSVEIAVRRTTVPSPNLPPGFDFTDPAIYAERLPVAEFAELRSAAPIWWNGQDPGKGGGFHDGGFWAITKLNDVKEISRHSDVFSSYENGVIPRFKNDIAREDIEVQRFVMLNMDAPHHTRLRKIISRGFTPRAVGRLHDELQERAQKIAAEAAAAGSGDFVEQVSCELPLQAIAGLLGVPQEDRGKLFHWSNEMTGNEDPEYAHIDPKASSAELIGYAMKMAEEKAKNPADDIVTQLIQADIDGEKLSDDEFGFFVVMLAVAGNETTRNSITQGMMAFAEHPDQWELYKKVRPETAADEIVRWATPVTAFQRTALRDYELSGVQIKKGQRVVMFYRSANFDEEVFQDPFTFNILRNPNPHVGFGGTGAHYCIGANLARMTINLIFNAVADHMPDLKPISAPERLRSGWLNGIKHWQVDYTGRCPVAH
Nature of the test: biochemical.

Test [3] concerns the target T2, CYP124 (Rv2266, CYP124A1) (Mycobacterium tuberculosis, UniProt P9WPP3).
T2 sequence (P9WPP3 1-428): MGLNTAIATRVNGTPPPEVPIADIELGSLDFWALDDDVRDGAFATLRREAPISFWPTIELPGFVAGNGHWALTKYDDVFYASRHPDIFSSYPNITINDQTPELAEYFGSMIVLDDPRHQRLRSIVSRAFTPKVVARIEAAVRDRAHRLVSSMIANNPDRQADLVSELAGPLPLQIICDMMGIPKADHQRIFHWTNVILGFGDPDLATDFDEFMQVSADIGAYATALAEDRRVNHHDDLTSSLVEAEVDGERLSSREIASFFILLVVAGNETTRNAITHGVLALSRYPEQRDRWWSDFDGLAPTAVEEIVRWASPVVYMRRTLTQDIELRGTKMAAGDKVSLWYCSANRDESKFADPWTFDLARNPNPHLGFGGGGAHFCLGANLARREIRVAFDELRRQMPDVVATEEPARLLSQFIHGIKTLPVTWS
Nature of the test: […] Å co-crystal structure; […]; LC-MS turnover.

Chain of CYP142 (Rv3518c, CYP142A1) (P9WPL5 whole entry): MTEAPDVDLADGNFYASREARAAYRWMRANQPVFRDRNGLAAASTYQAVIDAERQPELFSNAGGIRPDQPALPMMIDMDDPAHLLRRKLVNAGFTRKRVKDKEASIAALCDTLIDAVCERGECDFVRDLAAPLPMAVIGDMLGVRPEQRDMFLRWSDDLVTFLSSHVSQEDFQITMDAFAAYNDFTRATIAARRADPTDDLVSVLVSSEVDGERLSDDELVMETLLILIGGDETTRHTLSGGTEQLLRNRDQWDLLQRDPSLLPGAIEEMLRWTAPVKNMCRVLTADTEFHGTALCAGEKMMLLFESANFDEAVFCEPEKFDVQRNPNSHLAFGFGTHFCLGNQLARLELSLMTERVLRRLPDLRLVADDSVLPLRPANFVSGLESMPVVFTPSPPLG

The Kd is the free concentration of one partner at which half of the binding sites on the other are occupied at equilibrium, for simple one-to-one binding. Low readings indicate higher affinity, high ones lower affinity. Consider `CC(C)=CCC/C(C)=C\CNCCNC1C2CC3CC(C2)CC1C3` (stereo not drawn) [SQ109], for which the Kd in test [1] was 52 ± 11 µM; in test [2], 41 ± 3 µM; in test [3] it was 3.4 ± 0.3 µM.
